Patent US9492444B2, “Extruded extended release abuse deterrent pill” (Pharmaceutical Manufacturing Research Services, Inc., priority 2013, dated 2016)

Legend:
[1] = General solubility of exemplary components; assay type: physicochemical; settings: 200 proof ethanol, filtered through 0.22 micrometer PTFE filter
Excerpt: The following table lists the relative solubility of exemplary components of a formulation. A number of different dyes are listed along with their solubility information taken from the various literature sources and tested experimentally (200 proof ethanol and filtered through a 0.22 micrometer PTFE filter).

[2] = cited from earlier work

CCN(Cc1cccc(S(=O)(=O)[O-])c1)c1ccc(C(=C2C=CC(=[N+](CC)Cc3cccc(S(=O)(=O)[O-])c3)C=C2)c2ccccc2S(=O)(=O)[O-])cc1.[Na+].[Na+] [Blue #1]
Yes: Alcohol Solubility (tested) [1] | Alcohol Solubility (Literature) [2] | Water Solubility [2]

O=C1/C(=C2\Nc3ccc(S(=O)(=O)[O-])cc3C2=O)Nc2ccc(S(=O)(=O)[O-])cc21.[Na+].[Na+] [Blue #2]
Yes: Alcohol Solubility (tested) [1] | Alcohol Solubility (Literature) [2] | Water Solubility [2]

COc1cc(S(=O)(=O)[O-])c(C)cc1N=Nc1c(O)ccc2cc(S(=O)(=O)[O-])ccc12.[Na+].[Na+] [Red #40]
Yes: Alcohol Solubility (tested) [1] | Alcohol Solubility (Literature) [2] | Water Solubility [2]

O=C([O-])C1=NN(c2ccc(S(=O)(=O)[O-])cc2)C(=O)C1N=Nc1ccc(S(=O)(=O)[O-])cc1.[Na+].[Na+].[Na+] (stereo not drawn) [Yellow #5]
Yes: Alcohol Solubility (tested) [1] | Alcohol Solubility (Literature) [2] | Water Solubility [2]
